ChEMBL document CHEMBL5365446, “Discovery, Structure-Activity Relationships, and In Vivo Activity of Dihydropyridone Agonists of the Bile Acid Receptor TGR5” (J Med Chem, 2023)
≈ marks a conversion by molar mass, not a printed value.

What was measured:
[1] = biological target: T1, G-protein coupled bile acid receptor 1 (Mus musculus, UniProt Q80SS6); assay: Agonist activity at mouse TGR5 receptor expressed in HEK293 cells cotransfected with pCMV AC6-TGR5 assessed as activation of intracellular cAMP production incubated overnight by luciferase reporter gene assay; assay type: functional, cell-based
T1 sequence (Q80SS6 whole entry): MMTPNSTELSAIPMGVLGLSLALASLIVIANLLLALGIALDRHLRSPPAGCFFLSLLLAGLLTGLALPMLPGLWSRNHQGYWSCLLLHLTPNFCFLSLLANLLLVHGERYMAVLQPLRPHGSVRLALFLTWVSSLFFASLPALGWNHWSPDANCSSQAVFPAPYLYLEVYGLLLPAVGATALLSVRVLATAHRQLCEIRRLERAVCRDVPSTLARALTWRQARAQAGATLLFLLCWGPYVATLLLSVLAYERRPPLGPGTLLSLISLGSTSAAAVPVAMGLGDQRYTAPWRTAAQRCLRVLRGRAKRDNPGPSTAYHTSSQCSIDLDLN

[2] = biological target: T2, G-protein coupled bile acid receptor 1 (Homo sapiens, UniProt Q8TDU6); assay: Agonist activity at human TGR5 receptor expressed in HEK293 cells cotransfected with pCMV tag4b-TGR5 assessed as activation of intracellular cAMP production incubated overnight by luciferase reporter gene assay; assay type: functional, cell-based
T2 sequence (Q8TDU6 whole entry): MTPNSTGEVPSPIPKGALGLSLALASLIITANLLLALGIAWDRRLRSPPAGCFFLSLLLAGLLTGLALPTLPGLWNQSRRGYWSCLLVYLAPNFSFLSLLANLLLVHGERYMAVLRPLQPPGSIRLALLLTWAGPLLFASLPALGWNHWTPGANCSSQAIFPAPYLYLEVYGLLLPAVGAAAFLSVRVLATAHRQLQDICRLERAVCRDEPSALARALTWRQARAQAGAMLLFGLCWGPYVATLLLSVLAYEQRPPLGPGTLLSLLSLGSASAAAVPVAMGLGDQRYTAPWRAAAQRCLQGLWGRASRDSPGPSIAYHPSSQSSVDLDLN

[3] = Apparent permeability across basolateral to apical side in human Caco-2 cells measured after 1 hr by LC-MS/MS analysis
[4] = Apparent permeability across apical to basolateral side in human Caco-2 cells measured after 1 hr by LC-MS/MS analysis
physchem [5] = conditions: buffer, pH 7.4
physchem [6] = conditions: buffer, pH 7.4; remark: listed apart in the source
in vitro [7] = conditions: CD-1, mouse, liver microsomes
in vitro [8] = conditions: CD-1, mouse, liver microsomes; remark: listed apart in the source
in vitro [9] = conditions: CD-1, mouse, plasma

Row | Compound | EC50 ([1]; read-out: EC50) [nM] | EC50 ([2]; read-out: EC50) [nM] | other results
1 | COCCN1C(=O)CC(c2ccc(Cl)cc2)C(C(=O)OCc2cccc(Cl)c2)=C1C (stereo not given) | 600 |  | 
2 | CC1=C(C(=O)OCc2ccccc2)C(c2ccc(Cl)cc2F)CC(=O)N1 (stereo not given) |  | 2000 | 
3 | O=C1CC(c2ccc(Cl)cc2)C(C(=O)OCc2ccccc2)=CN1 (stereo not given) | 8600 |  | 
4 | COc1ccccc1COC(=O)C1=C(C)N(C[C@H]2CCCO2)C(=O)C[C@H]1c1ccc(Cl)cc1 (racemic) |  | 30 | EC50 ([2]; read-out: pEC50 (converted)): 25.1 nM
5 | COc1ccccc1COC(=O)C1=C(C)N(Cc2ccco2)C(=O)CC1c1ccc(Cl)cc1 (stereo not given) | 160 | 260 | 
6 | COCCN1C(=O)CC(c2ccc(Cl)cc2)C(C(=O)OCc2ccccc2OC)=C1C (single isomer, unassigned; enantiomer 1) |  | 120 | 
7 | COCCN1C(=O)CC(c2ccc(Cl)cc2)C(C(=O)OCc2ccccc2F)=C1C (stereo not given) | 600 | 300 | 
8 | C=CCN1C(=O)CC(c2ccc(Cl)cc2)C(C(=O)OCc2ccccc2)=C1C (stereo not given) |  | 800 | EC50 ([1]; read-out: pEC50 (converted)): 1580 nM
9 | COCCN1C(=O)CC(c2ccc(Cl)cc2)C(C(=O)OCc2cccc(C)c2)=C1C (stereo not given) |  |  | EC50 ([1]; read-out: pEC50 (converted)): 316 nM
10 | COCCN1C(=O)CC(c2ccc(Cl)cc2)C(C(=O)OCc2ccc(C(=O)OC)cc2)=C1C (stereo not given) |  | 300 | 
11 | COCCCN1C(=O)CC(c2ccc(Cl)cc2)C(C(=O)OCc2ccccc2OC)=C1C (stereo not given) | 730 | 190 | 
12 | CC1=C(C(=O)OCc2ccccc2)C(c2ccc(Cl)cc2)CC(=O)N1C (stereo not given) |  |  | EC50 ([2]; read-out: pEC50 (converted)): 631 nM
13 | COCCN1C(=O)CC(c2ccc(Cl)cc2)C(C(=O)OCCCc2ccccc2)=C1C (stereo not given) |  | 800 | 
14 | COCCN1C(=O)CC(c2ccc(Cl)cc2)C(C(=O)OCC2CCCCC2)=C1C (stereo not given) | 1200 | 700 | 
15 | C=C(C)CN1C(=O)CC(c2ccc(Cl)cc2)C(C(=O)OCc2ccccc2)=C1C (stereo not given) | 1100 | 800 | 
16 | COc1ccccc1COC(=O)C1=C(C)N(C[C@H]2CCCO2)C(=O)C[C@H]1c1ccc(Cl)cc1 |  | 14 | Papp B→A at 1 h [3]: 0.4 ×10⁻⁶ cm/s; Papp A→B at 1 h [4]: 0.2 ×10⁻⁶ cm/s; EC50 ([2]; read-out: pEC50 (converted)): 15.8 nM; logD at 24 h (physchem [5]): 3.2; solubility thermodynamic at 24 h (physchem [6]): 2.6 µM (≈ 1.22 µg/mL)
17 | COCCN1C(=O)CC(c2ccc(Cl)cc2)C(C(=O)OCc2ccc(F)cc2)=C1C (stereo not given) | 500 | 300 | 
18 | COCCN1C(=O)CC(c2ccc(Cl)cc2)C(C(=O)OCc2ccccc2)=C1C (stereo not given) | 900 | 500 | 
19 | COc1ccccc1COC(=O)C1=C(C)N(CCO)C(=O)CC1c1ccc(Cl)cc1 (stereo not given) | 770 |  | 
20 | COCCN1C(=O)CC(c2ccc(Cl)cc2)C(C(=O)OCc2ccc(C(F)(F)F)cc2)=C1C (stereo not given) | 400 |  | 
21 | COC(=O)CN1C(=O)CC(c2ccc(Cl)cc2)C(C(=O)OCc2ccccc2OC)=C1C (stereo not given) | 50 |  | 
22 | CC1=C(C(=O)OCc2ccccc2)C(c2ccc(Cl)cc2)CC(=O)N1Cc1ccccc1 (stereo not given) | 900 | 800 | 
23 | C#CCN1C(=O)CC(c2ccc(Cl)cc2)C(C(=O)OCc2ccccc2)=C1C (stereo not given) | 1000 | 700 | 
24 | COCCN1C(=O)CC(c2ccc(Cl)cc2)C(C(=O)OCc2cccc(F)c2)=C1C (stereo not given) | 800 |  | 
25 | COCCN1C(=O)CC(c2ccc(Cl)cc2)C(C(=O)OCc2cccc(C(F)(F)F)c2)=C1C (stereo not given) | 800 | 400 | 
26 | COCCN1C(=O)CC(c2ccc(Cl)cc2)C(C(=O)NCc2ccccc2)=C1C (stereo not given) |  | 13000 | 

Row | Compound | EC50 ([1]; read-out: EC50) [nM] | EC50 ([2]; read-out: EC50) [nM] | other results
27 | COc1ccccc1COC(=O)C1=C(C)N(C[C@H]2CCCO2)C(=O)C[C@@H]1c1ccc(Cl)nc1 |  | 223 | 
28 | COCCN1C(=O)CC(c2ccc(Cl)cc2)C(C(=O)OCc2c(C)cc(C)cc2C)=C1C (stereo not given) | 300 |  | 
29 | COc1ccccc1COC(=O)C1=C(C)N(CC2CCCO2)C(=O)CC1c1ccc(Cl)nc1 (racemic; 78) |  | 88 | 
30 | CC1=C(C(=O)OCc2ccccc2)C(c2ccc(Cl)cc2)CC(=O)N1CCN(C)C (stereo not given) | 4700 |  | 
31 | COCCN1C(=O)CC(c2ccc(Cl)cc2)C(C(=O)OCc2ccccc2C(F)(F)F)=C1C (stereo not given) |  | 1200 | EC50 ([1]; read-out: pEC50 (converted)): 1260 nM
32 | COCCN1C(=O)CC(c2ccc(Cl)cc2)C(C(=O)OCc2ccc(OC)cc2)=C1C (stereo not given) | 300 |  | 
33 | CC1=C(C(=O)OCc2ccccc2)C(c2ccc(C(F)(F)F)cc2)CC(=O)N1 (stereo not given) |  | 1200 | 
34 | COCCN1C(=O)CC(c2ccc(Cl)cc2)C(C(=O)OCc2ccccc2OC)=C1C (single isomer, unassigned) | 120 | 75 | 
35 | COCCN1C(=O)CC(c2ccc(Cl)cc2)C(C(=O)OCc2ccccc2OC(F)(F)F)=C1C (stereo not given) | 1200 |  | EC50 ([1]; read-out: pEC50 (converted)): 10000 nM
36 | COCCN1C(=O)CC(c2ccc(Cl)cc2)C(C(=O)OCc2cccc(C(=O)OC)c2)=C1C (stereo not given) | 800 | 800 | 
37 | COCCN1C(=O)CC(c2ccc(Cl)cc2)C(C(=O)OCc2ccncc2)=C1C (stereo not given) | 700 | 1000 | 
38 | COCCN1C(=O)CC(c2ccc(Cl)cc2)C(C(=O)OCc2ccc(Cl)cc2)=C1C (stereo not given) | 400 |  | 
39 | COc1ccccc1COC(=O)C1=C(C)N(C[C@@H]2CCCO2)C(=O)C[C@H]1c1ccc(Cl)nc1 |  | 35 | 
40 | COc1ccccc1COC(=O)C1=C(C)N(C[C@H]2CCCO2)C(=O)C[C@H]1c1ccc(Cl)nc1 |  | 2 | Papp B→A at 1 h [3]: 12.3 ×10⁻⁶ cm/s; Papp A→B at 1 h [4]: 22.5 ×10⁻⁶ cm/s; microsomal CLint at 40 min, 1 µM (in vitro [7]): 1310 µL/min/mg; half-life at 40 min, 1 µM (in vitro [8]): 24 s; logD at 24 h (physchem [5]): 3.7; solubility thermodynamic at 24 h (physchem [6]): 38.2 µM (≈ 18 µg/mL); half-life at 10 µM (in vitro [9]): > 6 h
41 | COCCN1C(=O)CC(c2ccc(Cl)cc2)C(C(=O)OCc2cccc(OC)c2)=C1C (stereo not given) |  | 300 | 
42 | COc1ccccc1COC(=O)C1=C(C)N(C[C@@H]2CCCO2)C(=O)C[C@@H]1c1ccc(Cl)nc1 |  | 429 | 
43 | CCN1C(=O)CC(c2ccc(Cl)cc2)C(C(=O)OCc2ccccc2)=C1C (stereo not given) | 900 |  | 
44 | COc1ccccc1COC(=O)C1=C(C)N(C[C@@H]2CCCO2)C(=O)C[C@H]1c1ccc(Cl)cc1 (racemic) |  | 110 | 
45 | CC1=C(C(=O)OCc2ccccc2)C(c2ccccc2OC(C)C)CC(=O)N1 (stereo not given) | 2300 |  | 
46 | CCCCN1C(=O)CC(c2ccc(Cl)cc2)C(C(=O)OCc2ccccc2)=C1C (stereo not given) | 900 | 500 | 
47 | CC1=C(C(=O)OCc2ccccc2)C(c2ccc(C)cc2)CC(=O)N1 (stereo not given) |  | 6300 | 
48 | COCCN1C(=O)CC(c2ccc(Cl)cc2)C(C(=O)OCc2ccc(C)cc2)=C1C (stereo not given) |  | 300 | 
49 | COC(=O)C1=C(C)N(C)C(=O)CC1c1ccc(Cl)cc1 (stereo not given) | 15000 |  | 
50 | COCCN1C(=O)CC(c2ccc(Cl)cc2)C(C(=O)OCc2ccccc2Cl)=C1C (stereo not given) | 1000 | 300 | 
51 | CC1=C(C(=O)OCc2ccccc2)C(c2ccc(Cl)cc2)CC(=O)N1CC1CCC1 (stereo not given) | 300 |  | EC50 ([2]; read-out: pEC50 (converted)): 316 nM
52 | COc1ccccc1COC(=O)C1=C(C)N(CC2CCCO2)C(=O)CC1c1ccc(Cl)nc1 (racemic; 77) |  | 2 | EC50 ([2]; read-out: pEC50 (converted)): 31.6 nM
